Assays:
[1] = system: HBV gene (HBV-DNA and RNA) in the serum; experiment: Quantification of the HBV gene (DNA+RNA) in the serum by reverse transcription plus TaqMan PCR; type: in vivo, HBV patient; conditions: one month before administration 7.8 × 10^6
Description: (§1) In order to isolate the HBV gene in Dane particles (the infective HBV particle: the complete HBV particle), the HBV gene in a serum from a HBV patient was purified using High Pure Viral Nucleic Acid kit (Roche Diagnostics) in the following method. One hundred μl of the serum from a HBV patient who received lamivudine treatment was mixed with 100 μl of the serum from a normal healthy subject to prepare 200 μl of a serum sample. To the serum sample, 200 μl of a working solution {50 μl of poly(A) carrier RNA (4 mg/ml) and 2.5 ml of the binding buffer [6 M guanidine-HCl, 10 mM urea, 10 mM Tris-HCl (pH 4.4), 20% Triton X-100 (v/v)]} and 50 μl of Proteinase K (18 mg/ml) were added and mixed, and incubated at 72° C. for 10 minutes.
(§2) One hundred μl of isopropanol and the sample were mixed, and the mixture was transferred into a High Pure filter tube. It was centrifuged at 8000 rpm for 1 minute, and after discarding the flowthrough, 500 μl of the inhibitor removal buffer [5 M guanidine-HCl, 20 mM Tris-HCl (pH 6.6)] was injected and then centrifuged at 8000 rpm for 1 minute. After adding 450 μl of the washing buffer [20 mM NaCl, 2 mM Tris-HCl (pH 7.5)], it was centrifuged at 8000 rpm for 1 minute. Then it was washed again in 450 μl of the washing buffer and was centrifuged at 13000 rpm for 10 seconds. Fifty μl of sterile water was added to the filter tube, which was centrifuged at 8000 rpm for 1 minute, and the flowthrough was collected to prepare a solution of the HBV gene in the serum.
In order to measure the amount of HBV gene in the serum, the step of the reverse transcriptase reaction was added. To 10 μl of the HBV gene solution, 1 μl of 20 mM dNTP Mix (10 mM dATP, 10 mM dGTP, 10 mM dCTP, 10 mM dTTP) and 0.2 μl of 10 μM HBS-R primer were mixed, and after incubated at 65° C. for 5 minutes, it was quickly cooled on ice. […]
By applying 4 μl of this reaction mixture to the above HBV-DNA quantification system, the amount of the HBV gene in the serum, i.e. the total amount of HBV-DNA and RNA in the serum, can be measured. […]

[2] = system: HBV-RNA in the serum; experiment: Amount of HBV-RNA in the serum, estimated by subtracting HBV-DNA from HBV gene; type: in vivo, HBV patient; conditions: one month before administration 5.4 × 10^6
Description: In order to measure the amount of HBV gene in the serum, the step of the reverse transcriptase reaction was added. To 10 μl of the HBV gene solution, 1 μl of 20 mM dNTP Mix (10 mM dATP, 10 mM dGTP, 10 mM dCTP, 10 mM dTTP) and 0.2 μl of 10 μM HBS-R primer were mixed, and after incubated at 65° C. for 5 minutes, it was quickly cooled on ice. Four μl of 5× reverse transcription buffer [250 mM Tris-HCl (pH 8.3), 375 mM KCl, 15 mM MgCl2], 0.2 μl of 0.1 M DTT, 0.6 μl of RNase inhibitor (40 units/μl) and 3 μl of sterile water were mixed and then subjected to an annealing reaction at 42° C. for 2 minutes, to which 1 μl of the reverse transcriptase (200 units/μl) was added to prepare a 20 μl of a reaction mixture, which was subjected to a reverse transcription reaction at 42° C. for 50 minutes and the inactivation of the reverse transcriptase was performed at 70° C. for 15 minutes.
By applying 4 μl of this reaction mixture to the above HBV-DNA quantification system, the amount of the HBV gene in the serum, i.e. the total amount of HBV-DNA and RNA in the serum, can be measured. Also, by subtracting the amount of HBV-DNA from the amount of the HBV gene, the amount of HBV-RNA in the serum can be estimated (Table 1).

[3] = system: HBV-DNA in the serum; experiment: Quantification of HBV-DNA in the serum by TaqMan PCR, patient under lamivudine treatment; type: in vivo; conditions: one month before administration 2.4 × 10^6
Description: as §1, §2
The quantification of HBV-DNA in the serum was performed by the TaqMan PCR method that employs the Light Cycler (Roche Diagnostics). […]
The condition included pretreatment at 95° C. for 10 minutes, DNA denaturation at 95° C. for 5 seconds, annealing at 60° C. for 15 seconds and DNA synthesis at 72° C. for 8 seconds, and fluorescence emitted from the TaqMan probe was measured to quantify the amount of HBV-DNA in the serum (Table 1).

[4] = system: HBc antigen; experiment: Measurement of the amount of HBc antigen (sandwich immunoassay, luminescence); type: in vivo, HBV patient; conditions: serum, before administration 610
Description: Three monoclonal antibodies HB44 (recognition site: amino acids 31-49), HB61 (recognition site: amino acids 131-140) and HB114 (recognition site: amino acids 1-81) that react both HBc antigen and HBe antigen were coated and immobilized to a microtiter plate. After washing with PBS, it was blocked with a solution containing casein and, after removing the solution, it was dried.
Fifty μl of the pretreatment solution (15% sodium dodecyl sulfate [SDS], 3% CHAPS, 1% hexadecyltrimethyl ammonium bromide) was mixed with 100 μl of the sample (serum, plasma etc.) and treated at 70° C. for 30 minutes.
To each antibody-immobilized well, 100 μl of the reaction buffer (pH 8.0) and 50 μl of the pretreated sample were added, and the plate was reacted under gentle stirring at room temperature for 2 hours.
After washing the wells, 100 μl of a solution containing alkaline phosphatase-labelled HB50 (recognition site: amino acids 168-176) monoclonal antibody was added to each well, and the plate was incubated at room temperature for 1 hour.
After washing the wells, 100 μl of the CDP Star with Emerald II (Applied Biosystems) was added, and the intensity of luminescence after reacting at room temperature for 20 minutes was measured using a microtiter plate luminometer. It was compared to the intensity of luminescence of the standard antigen and the concentration of HBc antigen in the sample was calculated (Table 1).

## Nc1ccn([C@@H]2CS[C@H](CO)O2)c(=O)n1 [lamivudine]
[1]; 8 months after administration
  Amount of HBV gene: 7.2 × 10^3 copies/ml
[1]; 19 months after administration
  Amount of HBV gene: 2.2 × 10^3 copies/ml
[1]; one month after administration
  Amount of HBV gene: 1.1 × 10^5 copies/ml
[2]; 8 months after administration
  Amount of HBV-RNA: 7.1 × 10^3 copies/ml
[2]; 19 months after administration
  Amount of HBV-RNA: 2.2 × 10^3 copies/ml
[2]; one month after administration
  Amount of HBV-RNA: 1.0×10^5 copies/ml
[3]; 8 months after administration
  Amount of HBV-DNA: 1.0 × 10^2 copies/ml
[3]; 19 months after administration
  Amount of HBV-DNA: 0 copies/ml
[3]; one month after administration of lamivudine
  Amount of HBV-DNA: 6.1×10^3 copies/ml
[4]; 8 months after administration
  Amount of HBc antigen: 21 pg/mL
[4]; 19 months after administration
  Amount of HBc antigen: 20 pg/mL
[4]; one month after administration
  Amount of HBc antigen: 56 pg/mL
